{"source": "paper PMC9127657", "about": "(Bioorganic & medicinal chemistry, 2021)"}
{"test_system": "not listed separately", "test": "Cytotoxicity assay in MT-4 cells", "format": "cell-based", "details": "human, uninfected MT-4 cells", "units": {"CC50 at 3 days": "µM"}}
{"molecule": "COc1ccc(N(C)C(=O)[C@H](Cc2ccccc2)NC(=O)C(=O)Nc2ccc([N+](=O)[O-])cc2)cc1", "note": "[III-16f, (S)-N1-(1-((4-methoxyphenyl)(methyl)amino)-1-oxo-3-phenylpropan-2-yl)–N2-(4-nitrophenyl)oxalamide]", "CC50 at 3 days": "> 10.2"}
{"test_system": "MT-4 cells", "test": "Cytotoxicity assay in MT-4 cells", "format": "cell-based", "details": "concentration required to reduce the viability of uninfected MT-4 cells by 50%; three days", "units": {"CC50": "µM"}}
{"molecule": "(S)-2-((3-(2,3-dihydro-1H-pyrrolo[3,4-c]pyridine-2-carbonyl)phenyl) sulfonamido)-N-(4-methoxyphenyl)-N-methyl-3-phenylpropanamide [Compound I-10c]", "CC50": "> 8.76"}
{"test_system": "HIV-1 NL4–3 Nanoluc-sec virus", "test": "not given", "format": "cell-based", "details": "concentration that inhibits HIV-1NL4–3 nanoluc-sec infection of MT-4 cells by 50%; three days", "units": {"EC50": "µM"}}
{"molecule": "(S)-2-((3-(2,3-dihydro-1H-pyrrolo[3,4-c]pyridine-2-carbonyl)phenyl) sulfonamido)-N-(4-methoxyphenyl)-N-methyl-3-phenylpropanamide [Compound I-10c]", "EC50": "> 8.76"}
{"test_system": "HIV-1 NL4–3 Nanoluc-sec virus", "test": "not given", "format": "cell-based", "details": "tested concentration 5 μg/mL, MT-4 cells"}
{"molecule": "COc1ccc(N(C)C(=O)[C@H](Cc2ccccc2)NS(=O)(=O)CC(=O)N2CCc3cc(OC)ccc32)cc1", "note": "[II-13d, (S)-2-((2-(5-methoxyindolin-1-yl)-2-oxoethyl)sulfonamido)-N-(4-methoxyphenyl)-N-methyl-3-phenylpropanamide]", "antiviral activity at the tested concentration": "lost their activity"}
{"molecule": "COc1ccc(N(C)C(=O)[C@H](Cc2ccccc2)NS(=O)(=O)CC(=O)Nc2ccc3ncsc3c2)cc1", "note": "[II-13b, (S)-2-((2-(benzo[d]thiazol-6-ylamino)-2-oxoethyl)sulfonamido)-N-(4-methoxyphenyl)-N-methyl-3-phenylpropanamide]", "antiviral activity at the tested concentration": "lost their activity"}
{"molecule": "COc1ccc(N(C)C(=O)[C@H](Cc2ccccc2)NS(=O)(=O)CC(=O)Nc2cc(F)cc(F)c2)cc1", "note": "[II-13e, (S)-2-((2-((3,5-difluorophenyl)amino)-2-oxoethyl)sulfonamido)-N-(4-methoxyphenyl)-N-methyl-3-phenylpropanamide]", "antiviral activity at the tested concentration": "lost their activity"}
{"molecule": "COc1ccc(N(C)C(=O)[C@H](Cc2ccccc2)NS(=O)(=O)CC(=O)n2ncc3ccccc32)cc1", "note": "[II-13f, (S)-2-((2-(1H-indazol-1-yl)-2-oxoethyl)sulfonamido)-N-(4-methoxyphenyl)-N-methyl-3-phenylpropeanamide]", "antiviral activity at the tested concentration": "lost their activity"}
{"molecule": "COc1ccc(N(C)C(=O)[C@H](Cc2ccccc2)NC(=O)c2cccc(S(=O)(=O)N3CCc4cc([N+](=O)[O-])ccc43)c2)cc1", "note": "[Compound V-25f, (S)-N-(1-((4-methoxyphenyl)(methyl)amino)-1-oxo-3-phenylpropan-2-yl)-3-((5-nitroindolin-1-yl)sulfonyl)benzamide]", "antiviral activity at the tested concentration": "loss of antiviral activity"}
{"molecule": "COc1ccc(N(C)C(=O)[C@H](Cc2ccccc2)NC(=O)c2cccc(S(=O)(=O)Nc3cc(F)cc(F)c3)c2)cc1", "note": "[V-25 h, (S)-3-(N-(3,5-difluorophenyl)sulfamoyl)-N-(1-((4-methoxyphenyl)(methyl)amino)-1-oxo-3-phenylpropan-2-yl)benzamide]", "antiviral activity at the tested concentration": "loss of antiviral activity"}
{"molecule": "COc1ccc(N(C)C(=O)[C@H](Cc2ccccc2)NC(=O)c2cccc(S(=O)(=O)Nc3ccc(C(F)(F)F)cc3)c2)cc1", "note": "[Compound V-25j, (S)-N-(1-((4-methoxyphenyl)(methyl)amino)-1-oxo-3-phenylpropan-2-yl)-3-(N-(4-(trifluoromethyl)phenyl)sulfamoyl)benzamide]", "antiviral activity at the tested concentration": "loss of antiviral activity"}
{"molecule": "COc1ccc(N(C)C(=O)[C@H](Cc2ccccc2)NC(=O)c2cccc(S(=O)(=O)N3CCc4cc(OC)ccc43)c2)cc1", "note": "[Compound V-25e, (S)-3-((5-methoxyindolin-1-yl)sulfonyl)-N-(1-((4-methoxyphenyl) (methyl)amino)-1-oxo-3-phenylpropan-2-yl)benzamide]", "antiviral activity at the tested concentration": "loss of antiviral activity"}
{"molecule": "COc1ccc(N(C)C(=O)[C@H](Cc2ccccc2)NS(=O)(=O)CC(=O)N2CCc3cc([N+](=O)[O-])ccc32)cc1", "note": "[II-13 g, (S)-N-(4-methoxyphenyl)-N-methyl-2-((2-(5-nitroindolin-1-yl)-2-oxoethyl)sulfonamido)-3-phenylpropanamide]", "antiviral activity at the tested concentration": "lost their activity"}
{"molecule": "COc1ccc(N(C)C(=O)[C@H](Cc2ccccc2)NC(=O)c2cccc(S(=O)(=O)N3CCc4ccccc43)c2)cc1", "note": "[Compound V-25d, (S)-3-(indolin-1-ylsulfonyl)-N-(1-((4-methoxyphenyl)(methyl)amino)-1-oxo-3-phenylpropan-2-yl)benzamide]", "antiviral activity at the tested concentration": "loss of antiviral activity"}
